Measurements reported in patent US20150064754A1, “BIOPRODUCTION OF CHEMICALS” (OPX Biotechnologies, Inc., priority 2013, published 2015).

B1: rhtA: chemical exporter from E. coli characterized for homoserine transport; mutant version rhtA(P2S) overexpressed (protein)
chain: MSGSLRKMPVWLPIVILLVAMASIQGGASLAKSLFPLVGAPGVTALRLALGTLILIAFFKPWRLRFAKEQRLPLLFYGVSLGGMNYLFYLSIQTVPLGIAVALEFTGPLAVALFSSRRPVDFVWVVLAVLGLWFLLPLGQDVSHVDLTGCALALGAGACWAIYILSGQRAGAEHGPATVAIGSLIAALIFVPIGALQAGEALWHWSVIPLGLAVAILSTALPYSLEMIALTRLPTRTFGTLMSMEPALAAVSGMIFLGETLTPIQLLALGAIIAASMGSTLTVRKESKIKELDIN

How the values were obtained:
[1] = system: E. coli strains; test: Growth inhibition of E. coli strains grown in the presence of 3-HP; format: cell-based; settings: levels as low as
[2] = system: H. elongata ACCase; test: Salt inhibition of ACCase enzyme activity (H. elongata ACCase); format: biochemical, Halomonas elongata; settings: FIG. 4
Description: Concentrations of products were measured using the Nanodrop spectophotometer.

[3] = target: E. coli ACCase (Escherichia coli, UniProt P0A9Q5+P0ABD5+P0ABD8+P24182); settings: FIG. 4; for decrease of the activity of the ACCase enzyme relative to control: salts of 3-HP levels near 0.66M; for decrease of the activity of the ACCase enzyme: salt levels near 0.44M
E. coli ACCase, sequence (P0A9Q5 whole entry): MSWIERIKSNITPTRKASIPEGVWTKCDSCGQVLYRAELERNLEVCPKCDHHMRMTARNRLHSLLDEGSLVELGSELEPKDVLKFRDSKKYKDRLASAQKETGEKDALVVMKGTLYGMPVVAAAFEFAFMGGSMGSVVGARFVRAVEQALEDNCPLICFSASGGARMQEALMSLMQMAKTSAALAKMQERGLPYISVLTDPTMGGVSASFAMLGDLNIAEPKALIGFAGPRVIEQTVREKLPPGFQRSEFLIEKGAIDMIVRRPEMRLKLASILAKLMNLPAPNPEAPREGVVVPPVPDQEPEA
E. coli ACCase, sequence (P0ABD5 whole entry): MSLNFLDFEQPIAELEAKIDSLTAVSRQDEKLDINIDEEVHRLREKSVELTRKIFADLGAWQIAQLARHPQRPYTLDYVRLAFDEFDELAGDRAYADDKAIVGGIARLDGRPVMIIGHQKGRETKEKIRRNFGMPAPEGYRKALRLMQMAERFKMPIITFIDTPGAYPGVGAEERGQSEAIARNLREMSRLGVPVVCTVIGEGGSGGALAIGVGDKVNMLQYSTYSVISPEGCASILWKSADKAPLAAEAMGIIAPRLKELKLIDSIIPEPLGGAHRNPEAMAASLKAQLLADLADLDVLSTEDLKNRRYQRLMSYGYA
Description: Levels of greater than 0.66M (60 g/L) are expected to be present for commercially viable commercial production of 3-HP.
Each gene was amplified by PCRs with Pfu Ultra II HS using the manufacturer's instructions, and the PCR products were purified using the Zymo PCR Cleanup kit. Concentrations of products were measured using the Nanodrop spectophotometer. The Gibson Assembly kit (NEB) was used to construct plasmids expressing the ACCase subunit genes as directed by the manufacturer. The effect of NH4-3-HP and NH4Cl on H. elongata ACCase was tested and compared to the E. coli ACCase.

[4] = system: 3-HP production; test: 1 L fermentation, 3HP titer with overexpression of rhtA exporter; format: cell-based, E. coli; settings: control plasmid without rhtA, FIG. 7
Description: A known chemical exporter from E. coli that has been previously characterized for homoserine transport, rhtA, was evaluated for increased production of 3-HP. A mutant version of the exporter, rhtA(P2S) (SEQ ID NO. 30 nucleic acid, SEQ ID NO. 31 protein) was synthesized behind the PtpiA promoter and inserted into the pTRC-PyibD-MCR plasmid behind a terminator using the Gibson Assembly kit (NEB) according to manufacturer's instructions. The effects of overexpression of rhtA were evaluated in 1 L fermentation compared to the control plasmid without rhtA. […] Construction of plasmids expressing another putative transporter, ydcO (SEQ ID NO. 32 nucleic acid, SEQ ID NO. 33 protein) is carried out in the same manner.

Molecule | effect of salt on H. elongata ACCase compared to the E. coli ACCase [2] | effect of salt on E. coli ACCase [3] | decrease of the activity of the ACCase enzyme relative to control [3] | decrease of the activity of the ACCase enzyme [3] | other results
O=C(O)CCO [3-HP, 3-hydroxypropionic acid] | – | – | – | – | 3-HP level at which growth inhibition is demonstrated [1]: 20 g/L
N.O=C(O)CCO [NH4-3-HP] | less affected | significantly inhibited | approximately 80% | – | –
Cl.N [NH4Cl] | less affected | significantly inhibited | – | approximately 80% | –
O=C([O-])CCO.[Na+] [Na-3-HP] | – | – | approximately 80% | – | –
[Cl-].[Na+] [NaCl] | – | – | – | approximately 80% | –
B1 | – | – | – | – | 3HP titer compared to the control production strain [4]: significant improvement
